According to BindingDB's records for doi:10.7270/Q2222S6W (University of Pittsburgh, 2007):

Biological target: Genome polyprotein (West Nile virus, UniProt P06935)
Assay: inhibitors of WNV NS2B-NS3 protease, dose response, biochemical, confirmation (AID 653)

Chain of Genome polyprotein (P06935 1371-1501 limits assumed): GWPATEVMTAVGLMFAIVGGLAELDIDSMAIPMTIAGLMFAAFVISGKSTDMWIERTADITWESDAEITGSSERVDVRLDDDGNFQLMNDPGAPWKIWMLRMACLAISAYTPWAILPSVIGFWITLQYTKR
Chain of Genome polyprotein (P06935 1502-2120 limits assumed): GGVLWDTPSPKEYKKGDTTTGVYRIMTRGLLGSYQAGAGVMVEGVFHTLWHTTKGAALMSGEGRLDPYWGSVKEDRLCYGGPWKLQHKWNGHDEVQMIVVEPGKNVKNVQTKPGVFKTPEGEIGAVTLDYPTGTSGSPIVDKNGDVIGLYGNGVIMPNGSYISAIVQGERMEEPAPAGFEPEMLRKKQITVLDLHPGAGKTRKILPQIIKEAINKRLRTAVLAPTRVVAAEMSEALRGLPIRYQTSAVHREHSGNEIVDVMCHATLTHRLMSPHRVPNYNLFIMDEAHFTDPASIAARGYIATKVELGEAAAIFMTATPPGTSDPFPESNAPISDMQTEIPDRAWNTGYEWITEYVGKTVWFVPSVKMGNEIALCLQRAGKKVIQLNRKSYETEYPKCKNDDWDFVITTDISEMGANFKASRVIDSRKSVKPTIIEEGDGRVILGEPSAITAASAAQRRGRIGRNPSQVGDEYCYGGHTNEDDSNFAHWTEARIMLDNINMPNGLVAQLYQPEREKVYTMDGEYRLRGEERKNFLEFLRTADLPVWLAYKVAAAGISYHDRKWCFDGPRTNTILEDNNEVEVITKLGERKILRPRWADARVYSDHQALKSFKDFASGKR

| Compound | IC50 [µM] |
| --- | --- |
| COc1cc(C=CC(=O)CC(=O)C=Cc2ccc(O)c(OC)c2)ccc1O [(1E,6E)-1,7-bis(4-hydroxy-3-methoxyphenyl)hepta-1,6-diene-3,5-dione] | > 50 |
| COC(=O)c1[nH]c2cc(OC)ccc2c1NC(=O)c1ccc2c(c1)OCO2 [MLS000081144] | > 50 |
| Cc1csc2nc(CNC(=O)C3CC=CCC3C(=O)O)cn12 (stereo not drawn) [6-[(3-methylimidazo[2,1-b][1,3]thiazol-6-yl)methylcarbamoyl]cyclohex-3-ene-1-carboxylic acid] | > 50 |
| CC(=O)N1CCN(C(=O)c2cccc(S(=O)(=O)Nc3ccc(C)cc3)c2)CC1 [3-(4-acetylpiperazine-1-carbonyl)-N-(4-methylphenyl)benzenesulfonamide] | > 50 |
| Nc1cc(OC(=O)c2ccccc2Br)nn1S(=O)(=O)c1ccccc1 [2-bromobenzoic acid (5-amino-1-besyl-pyrazol-3-yl) ester] | 1.26 |
| Cc1cc(N2CCC(C(=O)NC3CCCCC3)CC2)nc(-c2ccccc2)n1 [1-(6-Methyl-2-phenyl-pyrimidin-4-yl)-piperidine-4-carboxylic acid cyclohexylamide] | > 50 |
| CC(C)NCc1c(O)c(Br)cc2oc3c(c12)CCCC3 [3-bromanyl-1-[(propan-2-ylamino)methyl]-6,7,8,9-tetrahydrodibenzofuran-2-ol] | > 50 |
| N[C@@H](Cc1ccc(O)c(I)c1)C(=O)O | > 50 |
| Cc1cccc(N(C)C(=S)Oc2ccc3ccccc3c2)c1 [MLS000028526] | > 50 |
| COc1ccc(C(=O)c2oc3ccc(Br)cc3c2NC(C)=O)cc1 [MLS000115316] | > 50 |
| COc1ccccc1-n1c(SCC(=O)N2CCOCC2)nc(O)c(Cc2ccccc2)c1=O | > 50 |
| COc1cccc2cc(-c3csc(CCn4nc(C)cc4C)n3)c(=O)oc12 [3-[2-[2-(3,5-dimethyl-1-pyrazolyl)ethyl]-4-thiazolyl]-8-methoxy-1-benzopyran-2-one] | > 50 |
| CCOC(=O)C1CCN(S(=O)(=O)c2ccc(C(=O)OC)cc2)CC1 [1-(4-Methoxycarbonyl-benzenesulfonyl)-piperidine-4-carboxylic acid ethyl ester] | > 50 |
| COc1ccc(C2CC(c3cccc(C)c3)n3ncnc3N2)cc1 (stereo not drawn) [5-(4-methoxyphenyl)-7-(3-methylphenyl)-1,5,6,7-tetrahydro-[1,2,4]triazolo[1,5-a]pyrimidine] | > 50 |
| CCOC(=O)c1[nH]c2ccccc2c1NC(=O)CC [3-(1-oxopropylamino)-1H-indole-2-carboxylic acid ethyl ester] | > 50 |
| CCOC(=O)C(CC(=O)O)N1CCCCC1 (stereo not drawn) [4-ethoxy-4-keto-3-piperidino-butyric acid] | > 50 |
| O=C(OCCN1C(=O)c2ccccc2C1=O)c1cc(S(=O)(=O)N2CCOCC2)ccc1F [2-(1,3-dioxoisoindol-2-yl)ethyl 2-fluoro-5-morpholin-4-ylsulfonylbenzoate] | > 50 |
| C=CCC1(CN2CCCCCC2=O)C(=O)NC(=O)NC1=O [5-[(2-oxidanylideneazepan-1-yl)methyl]-5-prop-2-enyl-1,3-diazinane-2,4,6-trione] | > 50 |
